The test system of data set [1] is ARPE-19 cells. Kind of data set: Fibronectin deposition assay in TGFβ-stimulated ARPE-19 cells. The settings on record: for IC50: ARPE-19 cells stimulated with TGFβ, incubated 96 hours. It is filed as cell-based, human. The protocol:
ARPE-19 cells were plated into 96-well plates (10,000 cells/well) and allowed to attach. Media was removed and replaced with the media specified in the “Cell Culture” section above, without FBS. Cells were treated for four days±TGFβ (10 ng/mL) and 10 μM loxapine. Cells were fixed with 10% neutral buffered formalin (Sigma-Aldrich) for 15 minutes. Cells were permeabilized with 0.25% Triton X-100 (Sigma-Aldrich) and blocked with 1% BSA for 1 hour. Cells were incubated with mouse monoclonal IgG3 primary antibodies against fibronectin (Santa Cruz Biotechnology), which were diluted 1:400 in 0.25% Triton X-100 (Sigma-Aldrich) with 1% BSA. Cells were incubated with primary antibodies either in 4° C. overnight or at room temperature for 2 hours. Cells were washed with PBS (Gibco), then incubated for 1 hour with Alexa Fluor® 488 donkey anti-mouse IgG (H+L) secondary antibodies (Life Technologies) and DAPI (Thermo Fisher Scientific), which were each diluted 1:1000 in 0.25% Triton X-100 (Sigma-Aldrich) with 1% BSA. Cells were washed again with PBS (Gibco). Immunofluorescence was measured using a Cytation 5 imaging reader (BioTek).
The compounds of this Example were tested using the fibronectin deposition assay described in Example 1. In brief, ARPE-19 cells were stimulated with TGFβ+/−the indicated concentration of each compound. Incubated 96 hours Fixed and immunostained for fibronectin.
In brief, ARPE-19 cells were stimulated with TGFβ+/−the indicated concentration of each compound. Incubated 96 hours, fixed and immunostained for fibronectin.

For data set [2], the system named is profibrotic gene expression (COL1A1, ACTA2, FN1) in ARPE-19 cells. The data set is described as follows: Profibrotic gene expression by qPCR in ARPE-19 cells treated ±TGFβ. It is filed as cell-based, human. The settings on record: ARPE-19 + TGFβ (10 ng/mL), 24 hours; antagonists 10 μM, pramipexole 1 μM; compared to TGFβ only. The protocol: ARPE-19 cells were plated into 12 well plates (100,000 cells/well) and allowed to attach. Media was removed and replaced with the media specified in the “Cell Culture” section above, minus FBS. Cells were treated for 24 hours±TGFβ (10 ng/mL), 1 μM pramipexole, and 10 μM loxapine. RNA was isolated using the RNeasy Plus Mini Kit (Qiagen) and the manufacturer's protocol. Isolated RNA was converted to cDNA using the SuperScript VILO cDNA Synthesis Kit (Invitrogen) and the PTC-200 Peltier Thermal Cycler (MJ Research). Quantitative PCR (qPCR) was performed using FastStart Essential DNA Green Master (Roche) and LightCycler 96 (Roche).
After identifying the preferential expression of DRD2 in ARPE-19 cells, the regulatory effects of these receptors on fibrotic activation were elucidated. As to D2 dopamine receptor (FIG. 2A-B), RNA isolation and qPCR were used to measure the transcript levels of fibrotic markers in ARPE-19 cells treated±TGFβ, pramipexole (D2 agonist), and loxapine (D2 antagonist). […] In experiments combining pramipexole and loxapine along with TGFβ negates the activity of the molecules alone, confirming their activity is being driven by their interaction with the D2 receptor (FIG. 2B).
The effect of solnitropine, solupine, and loxapine on the expression of profibrotic genes COL1A1 and FN1 were evaluated as described in Example 1 (FIGS. 7A and 7B). In brief, ARPE-19 cells were treated±TGFβ in the presence of either loxapine, solnitropine, or solupine. Gene expression was measured by qPCR on RNA isolated from the treated cells 24 h after treatment.

Data set [3] deals with ARPE-19 cells. Kind of data set: Fibronectin deposition in ARPE-19 cells stimulated with a cocktail of profibrotic ligands. Format: cell-based, human. The following applies: TGF-β1, TGF-β2, TNF-α, FGF-β, PDGF-CC all at 10 ng/mL, 10 μM solupine. The protocol: ARPE-19 cells were cultured as described in FIGS. 4-6 and fibronectin was measured after stimulating the cells with a combination of profibrotic soluble factors including: T1=TGF-β1, T2=TGF-β2, Tα=TNF-α, Fβ=FGF-β, PC=PDGF-CC, (all at 10 ng/mL). +/−10 μM solupine. N=3. Results: solupine maintains its efficacy at blocking RPE cell fibronectin deposition when profibrotic factors are combined in a cocktail.

The subject of data set [4] is ARPE-19 cells. The data set is described as follows: PDGF-CC stimulated proliferation. It is filed as cell-based, human. The settings on record: ARPE-19, 10 ng/mL PDGF-CC; compared with methotrexate. As for the experimental part:
Effect of methotrexate, solupine, sertindole, penfluridol, pimozide, and fluspirilene, on FGF-β stimulated proliferation was determined. Methods: ARPE-19 cells were seeded into 96-well plates (1,000 cells/well) and incubated for 6 h at 37° C. After, media was removed and exchanged for media containing 0% fetal bovine serum+/−10 ng/mL FGF-β, and the indicated concentration of compound. Compound concentrations were selected based on the potencies observed in FIGS. 4A-6B, and 9A-9C. After the indicated number of hours, cells were fixed in 4% formalin, and DAPI stained. Cells were then imaged using an automated microscope (Biotek Cytation5) and the number of DAPI nuclei were quantified using onboard software (Gen5). Raw cells/field of view are plotted. N=3. […] FGF-β levels are elevated in patients with PVR.
Effect of methotrexate and solupine on PDGF-CC stimulated proliferation was determined. Methods: experiments were carried out as described in Example 6, except 10 ng/mL PDGF-CC was used to stimulate proliferation. […] PDGF-CC levels are elevated in patients with PVR.

Data set [5] relates to mouse eye. Kind of data set: Toxicology scoring of mouse eye injected with solupine. It is filed as in vivo. The settings on record: mice, 14 days. The protocol: Mice were injected with 1 μL of PBS (FIG. 17A), 1 μL PBS containing 10 μg/0.05 mL solupine (FIG. 17B), or 1 μL PBS containing 30 μg/0.05 mL solupine (FIG. 17C). The eyes were then analyzed by a pathologist and scored for the indicated observations of ocular toxicities. over the course of 14 days. Work was performed under contract with Labcorp. N=3-6 mice/group.

In data set [6] the test system is Human conjunctival fibroblasts. The data set is described as follows: Fibronectin deposition by conjunctival fibroblasts. It is filed as cell-based. The following applies: conditions of FIGS. 4-6, indicated concentrations of solupine. As for the experimental part:
Human conjunctival fibroblasts were cultured under the same conditions described in FIGS. 4-6 and fibronectin deposition was measured after treating with the indicated concentrations of solupine. N=3.

Data set [7] concerns ARPE-19 cells. Kind of data set: Solupine functional stability (stored saline stock vs fresh, FGF-β proliferation readout). Format: cell-based, human. The following applies: dissolved in saline, opaque sealed container, 4° C.; potency compared with fresh stock in FGF-β proliferation. The protocol: A powder stock of solupine was dissolved in saline and stored in an opaque, sealed container at 4° C. for 90 days. The potency and efficacy of this stored stock was then compared to freshly solubilized stock of solupine dissolved in saline. ARPE-19 cells were cultured for 4 days with FGF-β and the indicated concentration of fresh or 90-day-old solupine stock. Cells were then assayed for proliferation as described herein for FIGS. 10 and 11. N=3. Results: solupine stock is functionally stable for at least 90 days under these conditions.

The mark [8] stands for this setting: fibronectin deposition, read-out: IC50.
Where [9] appears, read: Homo sapiens, fibronectin deposition, read-out: IC50.
Where [10] appears, read: Homo sapiens, read-out: IC50 values (fibronectin deposition).

Where two headings read alike, the source gives them in different places. Bounds are passed on as bounds.

Turning to `CN1CCN(C2=Nc3cc(O)ccc3Oc3ccc(Cl)cc32)CC1` [8-OH-loxapine], the IC50 in data set [1] (setting [8]) was more than 10 µM. On the same count and under the same terms, the figure for `Clc1ccc2c(c1)N=C(N1CCNCC1)c1ccccc1N2` [N-desmethyl clozapine] is not above 5 µM; for `Cc1cc2c(s1)Nc1ccccc1N=C2N1CCNCC1` [N-desmethyl olanzapine] it is not above 5 µM. In the case of `CCN1CCCC1CNC(=O)c1cc(S(=O)(=O)CC)c(N)cc1OC` (stereo not shown) [amisulpride], in data set [1] (setting [9]), the IC50 is more than 10 µM. For `O=C1CCc2ccc(OCCCCN3CCN(c4cccc(Cl)c4Cl)CC3)cc2N1` [aripiprazole], the fibronectin deposition result in data set [1] (ARPE-19, TGFβ, performed identically to FIGS. 4-6, N=3) is “blocks fibronectin deposition”. On to `O=C(CCCN1CCC(n2c(O)nc3ccccc32)CC1)c1ccc(F)cc1` [benperidol], for which the IC50 in data set [1] (setting [9]) is not above 5 µM. For the molecule `CCN1CCN(c2cc(-c3ccc(F)cc3)c3c(n2)CCCCCC3)CC1` [blonanserin], the IC50 in data set [1] (setting [9]) was 5 to 10 µM.

Take `O=C(CCCN1CC=C(n2c(=O)[nH]c3ccccc32)CC1)c1ccc(F)cc1` [droperidol]: in data set [1] (setting [9]), the IC50 was in the range of 5 to 10 µM.

Regarding `CCc1cc(Cl)c(OC)c(C(=O)NC[C@@H]2CCCN2CC)c1O` [eticlopride], the IC50 in data set [1] (setting [9]) was more than 10 µM.

As to `O=C1NCN(c2ccccc2)C12CCN(CCCC(c1ccc(F)cc1)c1ccc(F)cc1)CC2` [fluspirilene], the IC50 in data set [1] (setting [9]) was not above 5 µM. For `CN1CCN(C2=Nc3ccccc3Oc3ccc(Cl)cc32)CC1` [loxapine], in data set [1] (setting [9]), the IC50 is not above 5 µM. The same measure, in the same setting: the figure for `O=C1[C@@H]2[C@H]3CC[C@H](C3)[C@@H]2C(=O)N1C[C@@H]1CCCC[C@H]1CN1CCN(c2nsc3ccccc23)CC1` [lurasidone] is not above 5 µM; for `CN(Cc1cnc2nc(N)nc(N)c2n1)c1ccc(C(=O)N[C@@H](CCC(=O)O)C(=O)O)cc1` [methotrexate] it is more than 10 µM; for `OC1(c2ccc(Cl)c(C(F)(F)F)c2)CCN(CCCC(c2ccc(F)cc2)c2ccc(F)cc2)CC1` [penfluridol] it is not above 5 µM.

On to `OCCN1CCN(CCCN2c3ccccc3Sc3ccc(Cl)cc32)CC1` [perphenazine], for which, in data set [1] (setting [9]), the IC50 was more than 10 µM.

Take `O=c1[nH]c2ccccc2n1C1CCN(CCCC(c2ccc(F)cc2)c2ccc(F)cc2)CC1` [pimozide]: the IC50 in data set [1] (setting [9]) is not above 5 µM. Still for that read-out and setting: the figure for `CN1CCC(=C2c3ccccc3CCc3sccc32)CC1` [pizotifen] is not above 5 µM; for `CCN1CCC[C@H]1CNC(=O)c1c(O)c(Cl)cc(Cl)c1OC` [raclopride] it is more than 10 µM.

For the molecule `CCN1CCC[C@H]1CNC(=O)c1c(OC)ccc(Br)c1OC` [remoxipride], the IC50 in data set [1] (setting [9]) is more than 10 µM.

In the case of `O=C1NCCN1CCN1CCC(c2cn(-c3ccc(F)cc3)c3ccc(Cl)cc23)CC1` [sertindole], the IC50 in data set [1] (setting [9]) is not above 5 µM. For the molecule `c1ccc2c(c1)Oc1cccnc1N=C2N1CCNCC1` [solnitropine], in data set [2], the “expression of COL1A1” value was “significantly reduced” and the “expression of FN1” value is reported as “significantly reduced”. For the same molecule, in data set [1] (setting [10]), the IC50 was not above 5 µM. Besides, in data set [1] (setting [9]), the IC50 is not above 5 µM. For the molecule `c1ccc2c(c1)Oc1sccc1N=C2N1CCNCC1` [solupine], the “fibronectin deposition, cocktail of profibrotic ligands” value in data set [3] is “blocks fibronectin deposition”. Also, the “expression of COL1A1” value in data set [2] is “significantly reduced”. Besides, the “expression of FN1” value in data set [2] is “significantly reduced”. In addition, in data set [4], the “potency at blocking PDGF stimulated proliferation” value is given as “more potent than methotrexate”. The ocular toxicity scoring result in data set [5] (eye injection 1 μL PBS containing 10 μg/0.05 mL solupine) and in data set [5] (eye injection 1 μL PBS containing 30 μg/0.05 mL solupine) was “No observable toxicity” throughout. For the same molecule, the IC50 in data set [1] (setting [10]) and in data set [1] (setting [9]) was not above 5 µM in each case. Besides, in data set [6], the “fibronectin deposition by conjunctival fibroblasts” value is on record as “does not block fibronectin deposition”. For the same molecule, the “functional stability of stock” value in data set [7] is on record as “at least 90 days”. Regarding `CCN1CCCC1CNC(=O)c1cc(S(N)(=O)=O)ccc1OC` (stereo not shown) [sulpiride], the IC50 in data set [1] (setting [9]) was more than 10 µM. On the same count and under the same terms, under `O=C(CCCN1CCC(n2c(=S)[nH]c3ccccc32)CC1)c1ccc(F)cc1` [timiperone] stands not above 5 µM. As for `CN1CCN(CCCN2c3ccccc3Sc3ccc(C(F)(F)F)cc32)CC1` [trifluoperizine], the IC50 in data set [1] (setting [8]) was more than 10 µM.

Source of the values: patent US20250170143A1, “METHODS OF TREATING OCULAR FIBROTIC PATHOLOGIES” (Mayo Foundation for Medical Education and Research, priority 2022, published 2025).
